Biological target: human PAD4 (hPAD4) (Homo sapiens, UniProt Q9UM07)
Assay: RFMS human PAD4 functional assay (rapid-fire mass spectrum)
Assay type: biochemical
Conditions: 5 nM hPAD4 enzyme, 250 μM BAEE, 50 μM Calcium; 30 min preincubation, 90 min reaction at 37° C.
Summary of the method: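 PAD4 (10 nM) preincubated 30 min with compound (top final 50 μM), then BAEE substrate added in pH 7.5 HEPES buffer with DTT, 50 μM calcium, TPEN; 90 min at 37° C. After TCA quench, citrulline derivatized with phenyl glyoxal (4 mM final, 30 min, 37° C) and quantified by RapidFire MS against internal standard.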

human PAD4 (hPAD4), sequence (Q9UM07 whole entry): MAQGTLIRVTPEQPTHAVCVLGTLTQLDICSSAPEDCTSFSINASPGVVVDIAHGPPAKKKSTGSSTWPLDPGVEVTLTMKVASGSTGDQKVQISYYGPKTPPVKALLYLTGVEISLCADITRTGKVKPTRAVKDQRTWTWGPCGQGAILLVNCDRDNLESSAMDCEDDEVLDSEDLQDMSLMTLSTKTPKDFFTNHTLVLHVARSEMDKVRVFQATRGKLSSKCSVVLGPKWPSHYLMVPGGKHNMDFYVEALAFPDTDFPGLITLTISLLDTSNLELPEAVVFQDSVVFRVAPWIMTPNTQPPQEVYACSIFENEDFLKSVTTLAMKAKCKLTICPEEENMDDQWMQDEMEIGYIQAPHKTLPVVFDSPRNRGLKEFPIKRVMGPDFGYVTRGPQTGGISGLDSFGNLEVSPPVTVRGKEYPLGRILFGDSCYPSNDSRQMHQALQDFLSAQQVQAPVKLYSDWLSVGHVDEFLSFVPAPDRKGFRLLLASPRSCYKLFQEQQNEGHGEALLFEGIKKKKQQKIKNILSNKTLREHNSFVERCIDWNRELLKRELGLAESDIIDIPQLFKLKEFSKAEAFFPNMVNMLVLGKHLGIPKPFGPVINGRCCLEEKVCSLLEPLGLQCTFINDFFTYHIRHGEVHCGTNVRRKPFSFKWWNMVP

Compound	IC50 [nM]
COc1cc(C(=O)N2CC3CCC2[C@@H]3N)cc2nc(-c3cc4cccnc4n3CC3CC3)n(CC3CN(C(=O)[C@H]4C[C@@H]4c4ccccc4)C3)c12 (stereo partly drawn) [Example 103, (1R,4R,7R)-2-{2-[1-(cyclopropylmethyl)-1H-pyrrolo[2,3-b]pyridin-2-yl]-7-methoxy-1-({1-[(1S,2S)-2-phenylcyclopropanecarbonyl]aze-tidin-3-yl}-methyl)-1H-1,3-benzodiazole-5-carbonyl}-2-azabicyclo[2.2.1]heptan-7-amine]	14
CC#CC(=O)N1CC(Cn2c(-c3cc4cccnc4n3CC3CC3)nc3cc(C(=O)N4C[C@H]5CC[C@@H]4[C@@H]5N)cc(OC)c32)C1 [Example 104, 1-[3-({5-[(1R,4R,7R)-7-amino-2-azabicyclo[2.2.1]heptane-2-carbonyl]-2-[1-(cyclopropylmethyl)-1H-pyrrolo[2,3-b]pyridin-2-yl]-7-methoxy-1H-1,3-benzodiazol-1-yl}methyl)azetidin-1-yl]but-2-yn-1-one]	27
COc1cc(C(=O)N2C[C@H]3CC[C@@H]2[C@@H]3N)cc2nc(-c3cc4cccnc4n3CC3CC3)n(CC3CN(c4ccnc(C5CC5)n4)C3)c12 [Example 105, (1R,4R,7R)-2-{2-[1-(cyclopropylmethyl)-1H-pyrrolo[2,3-b]pyridin-2-yl]-1-{[1-(2-cyclopropylpyrimidin-4-yl)azetidin-3-yl]methyl}-7-methoxy-1H-1,3-benzodiazole-5-carbonyl}-2-azabicyclo[2.2.1]heptan-7-amine]	31
COc1cc(C(=O)N2CC3CCC2[C@@H]3N)cc2nc(-c3cc4cccnc4n3CC3CC3)n(CC3CN(C(=O)[C@H]4C[C@@H]4C)C3)c12 (stereo partly drawn) [Example 106, (1R,4R,7R)-2-{2-[1-(cyclopropylmethyl)-1H-pyrrolo[2,3-b]pyridin-2-yl]-7-methoxy-1-({1-[(1S,2S)-2-methylcyclopropanecarbonyl]aze-tidin-3-yl}methyl)-1H-1,3-benzodiazole-5-carbonyl}-2-azabicyclo[2.2.1]heptan-7-amine]	32
COc1cc(C(=O)N2C[C@H]3CC[C@@H]2[C@@H]3N)cc2nc(-c3cc4cccnc4n3CC3CC3)n(CC3CN(C(=O)c4ccnc(Cl)c4)C3)c12 [Example 107, (1R,4R,7R)-2-(1-{[1-(2-chloropyridine-4-carbonyl)azetidin-3-yl]methyl}-2-[1-(cyclopropylmethyl)-1H-pyrrolo[2,3-b]pyridin-2-yl]-7-methoxy-1H-1,3-benzodiazole-5-carbonyl)-2-azabicyclo[2.2.1]heptan-7-amine]	33
CCC#CC(=O)N1CC(Cn2c(-c3cc4cccnc4n3CC3CC3)nc3cc(C(=O)N4C[C@H]5CC[C@@H]4[C@@H]5N)cc(OC)c32)C1 [Example 108, 1-[3-({5-[(1R,4R,7R)-7-amino-2-azabicyclo[2.2.1]heptane-2-carbonyl]-2-[1-(cyclopropylmethyl)-1H-pyrrolo[2,3-b]pyridin-2-yl]-7-methoxy-1H-1,3-benzodiazol-1-yl}methyl)azetidin-1-yl]pent-2-yn-1-one]	40
COc1cc(C(=O)N2C[C@H]3CC[C@@H]2[C@@H]3N)cc2nc(-c3cc4cccnc4n3CC3CC3)n(CC3CN(C(=O)C#Cc4ccccc4)C3)c12 [Example 109, 1-[3-({5-[(1R,4R,7R)-7-amino-2-azabicyclo[2.2.1]heptane-2-carbonyl]-2-[1-(cyclopropylmethyl)-1H-pyrrolo[2,3-b]pyridin-2-yl]-7-methoxy-1H-1,3-benzodiazol-1-yl}methyl)azetidin-1-yl]-3-phenylprop-2-yn-1-one]	41
COc1cc(C(=O)N2C[C@H]3CC[C@@H]2[C@@H]3N)cc2nc(-c3cc4cccnc4n3CC3CC3)n(CC3CN(C(=O)C4CCCCC4)C3)c12 [Example 110, (1R,4R,7R)-2-{1-[(1-cyclohexanecarbonylazetidin-3-yl)methyl]-2-[1-(cyclopropylmethyl)-1H-pyrrolo[2,3-b]pyridin-2-yl]-7-methoxy-1H-1,3-benzodiazole-5-carbonyl}-2-azabicyclo[2.2.1]heptan-7-amine]	46
COc1cc(C(=O)N2C[C@H]3CC[C@@H]2[C@@H]3N)cc2nc(-c3cc4cccnc4n3CC3CC3)n(CC3CN(C(=O)c4ccncn4)C3)c12 [Example 111, (1R,4R,7R)-2-{2-[1-(cyclopropylmethyl)-1H-pyrrolo[2,3-b]pyridin-2-yl]-7-methoxy-1-{[1-(pyrimidine-4-carbonyl)azetidin-3-yl]methyl}-1H-1,3-benzodiazole-5-carbonyl}-2-azabicyclo[2.2.1]heptan-7-amine]	51
COc1cc(C(=O)N2C[C@H]3CC[C@@H]2[C@@H]3N)cc2nc(-c3cc4cccnc4n3CC3CC3)n(CC3CN(C(=O)c4ccc(C#N)cc4)C3)c12 [Example 112, 4-[3-({5-[(1R,4R,7R)-7-amino-2-azabicyclo[2.2.1]heptane-2-carbonyl]-2-[1-(cyclopropylmethyl)-1H-pyrrolo[2,3-b]pyridin-2-yl]-7-methoxy-1H-1,3-benzodiazol-1-yl}methyl)azetidine-1-carbonyl]benzonitrile]	51
COc1cc(C(=O)N2C[C@H]3CC[C@@H]2[C@@H]3N)cc2nc(-c3cc4cccnc4n3CC3CC3)n(CC3CN(C(=O)C4CCCC4)C3)c12 [Example 113, (1R,4R,7R)-2-{1-[(1-cyclopentanecarbonylazetidin-3-yl)methyl]-2-[1-(cyclopropylmethyl)-1H-pyrrolo[2,3-b]pyridin-2-yl]-7-methoxy-1H-1,3-benzodiazole-5-carbonyl]-2-azabicyclo[2.2.1]heptan-7-amine]	52
COc1cc(C(=O)N2C[C@H]3CC[C@@H]2[C@@H]3N)cc2nc(-c3cc4cccnc4n3CC3CC3)n(CC3CN(C(=O)C4CCC4)C3)c12 [Example 114, (1R,4R,7R)-2-{1-[(1-cyclobutanecarbonylazetidin-3-yl)methyl]-2-[1-(cyclopropylmethyl)-1H-pyrrolo[2,3-b]pyridin-2-yl]-7-methoxy-1H-1,3-benzodiazole-5-carbonyl}-2-azabicyclo[2.2.1]heptan-7-amine]	54
COc1cc(C(=O)N2C[C@H]3CC[C@@H]2[C@@H]3N)cc2nc(-c3cc4cccnc4n3CC3CC3)n(CC3CN(C(=O)CC4CC4)C3)c12 [Example 115, 1-[3-({5-[(1R,4R,7R)-7-amino-2-azabicyclo[2.2.1]heptane-2-carbonyl]-2-[1-(cyclopropylmethyl)-1H-pyrrolo[2,3-b]pyridin-2-yl]-7-methoxy-1H-1,3-benzodiazol-1-yl}methyl)azetidin-1-yl]-2-cyclopropylethan-1-one]	59
C/C=C/C(=O)N1CC(Cn2c(-c3cc4cccnc4n3CC3CC3)nc3cc(C(=O)N4C[C@H]5CC[C@@H]4[C@@H]5N)cc(OC)c32)C1 [Example 116, (2E)-1-[3-({5-[(1R,4R,7R)-7-amino-2-azabicyclo[2.2.1]heptane-2-carbonyl]-2-[1-(cyclopropylmethyl)-1H-pyrrolo[2,3-b]pyridin-2-yl]-7-methoxy-1H-1,3-benzodiazol-1-yl}methyl)azetidin-1-yl]but-2-en-1-one]	59
COc1cc(C(=O)N2C[C@H]3CC[C@@H]2[C@@H]3N)cc2nc(-c3cc4cccnc4n3CC3CC3)n(CC3CN(C(=O)c4ccncc4)C3)c12 [Example 117, (1R,4R,7R)-2-{2-[1-(cyclopropylmethyl)-1H-pyrrolo[2,3-b]pyridin-2-yl]-7-methoxy-1-{[1-(pyridine-4-carbonyl)azetidin-3-yl]methyl}-1H-1,3-benzodiazole-5-carbonyl}-2-azabicyclo[2.2.1]heptan-7-amine]	66
CCCC(=O)N1CC(Cn2c(-c3cc4cccnc4n3CC3CC3)nc3cc(C(=O)N4C[C@H]5CC[C@@H]4[C@@H]5N)cc(OC)c32)C1 [Example 118, 1-[3-({5-[(1R,4R,7R)-7-amino-2-azabicyclo[2.2.1]heptane-2-carbonyl]-2-[1-(cyclopropylmethyl)-1H-pyrrolo[2,3-b]pyridin-2-yl]-7-methoxy-1H-1,3-benzodiazol-1-yl}methyl)azetidin-1-yl]butan-1-one]	68
COc1cc(C(=O)N2C[C@H]3CC[C@@H]2[C@@H]3N)cc2nc(-c3cc4cccnc4n3CC3CC3)n(CC3CN(C(=O)c4ccnc(C)n4)C3)c12 [Example 119, (1R,4R,7R)-2-{2-[1-(cyclopropylmethyl)-1H-pyrrolo[2,3-b]pyridin-2-yl]-7-methoxy-1-{[1-(2-methylpyrimidine-4-carbonyl)azetidin-3-yl]methyl}-1H-1,3-benzodiazole-5-carbonyl}-2-azabicyclo[2.2.1]heptan-7-amine]	69
COc1cc(C(=O)N2C[C@H]3CC[C@@H]2[C@@H]3N)cc2nc(-c3cc4cccnc4n3CC3CC3)n(CC3CN(C(=O)c4ccc(Cl)nc4)C3)c12 [Example 120, (1R,4R,7R)-2-(1-{[1-(6-chloropyridine-3-carbonyl)azetidin-3-yl]methyl}-2-[1-(cyclopropylmethyl)-1H-pyrrolo[2,3-b]pyridin-2-yl]-7-methoxy-1H-1,3-benzodiazole-5-carbonyl)-2-azabicyclo[2.2.1]heptan-7-amine]	73
COc1cc(C(=O)N2C[C@H]3CC[C@@H]2[C@@H]3N)cc2nc(-c3cc4cccnc4n3CC3CC3)n(CC3CN(C(=O)c4cnc(NCC(C)(C)O)nc4)C3)c12 [Example 121, 1-({5-[3-({5-[(1R,4R,7R)-7-amino-2-azabicyclo[2.2.1]heptane-2-carbonyl]-2-[1-(cyclopropylmethyl)-1H-pyrrolo[2,3-b]pyridin-2-yl]-7-methoxy-1H-1,3-benzodiazol-1-yl}methyl)azetidine-1-carbonyl]pyrimidin-2-yl}amino)-2-methylpropan-2-ol]	95
COc1cc(C(=O)N2C[C@H]3CC[C@@H]2[C@@H]3N)cc2nc(-c3cc4cccnc4n3CC3CC3)n(CC3CN(C(=O)c4ccnc(F)c4)C3)c12 [Example 122, (1R,4R,7R)-2-{2-[1-(cyclopropylmethyl)-1H-pyrrolo[2,3-b]pyridin-2-yl]-1-{[1-(2-fluoropyridine-4-carbonyl)azetidin-3-yl]methyl}-7-methoxy-1H-1,3-benzodiazole-5-carbonyl}-2-azabicyclo[2.2.1]heptan-7-amine]	98

Reference: patent publication US12692254B2, “Benzimidazole inhibitors of PAD enzymes” (BRISTOL-MYERS SQUIBB COMPANY, priority 2018, dated 2026)
